The subject of assay [1] is NCIH460, HCT116 and U251 cells. Description: Anti-cancer screen, mean GI50 over cell lines. As to conditions: mean over cell lines; read-out: Cell growth inhibition Mean GI50. The format is cell-based. In outline:
(§1)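 A570 read-out after a 3 h MTT step and DMSO solubilisation; a separate plate measured at drug addition served as T0. Treatment lasted 48 h at five concentrations (0.01–100 μM) after 24 h attachment in DMEM/10% FBS; SAHA as standard.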

Another assay deals with NCIH460 (lung) cells. Briefly: Anti-cancer screen (MTT), NCIH460. Type of assay: cell-based. The note with it: Homo sapiens, NCI-H460, NCIH460, 48 hours, MTT; for GI50: read-out: Cell growth inhibition NCIH460 (Lung) GI50; for LC50: read-out: Cell growth inhibition NCIH460 (Lung) LC50; for IC (TGI): read-out: Cell growth inhibition NCIH460 (Lung) TGI. In outline: as §1
In another assay the test system is U251 (glioma) cells. Briefly: Anti-cancer screen (MTT), U251. The note with it: Homo sapiens, U-251, U251, 48 hours, MTT; for GI50: read-out: Cell growth inhibition U251 (Glioma) GI50; for LC50 (concentration giving 50% net cell kill relative to the time-zero cell count): read-out: Cell growth inhibition U251 (Glioma) LC50; for IC (TGI): read-out: Cell growth inhibition U251 (Glioma) TGI. The format is cell-based. In outline: as §1

Another assay has as its target recombinant HDAC1 enzyme (Homo sapiens (Human), UniProt Q13547). Briefly: HDAC1 inhibitory activity (isoform selectivity). The format is biochemical. As to conditions: read-out: HDAC1 inhibition (IC50). As to the method:
The assay was carried out, as previously described using recombinant HDAC1 enzyme (BIOMOL, USA) and following manufacturer's instructions.

The test system of assay [2] is HDAC (Mouse Liver Extract). Briefly: HDAC inhibition assay using Boc-Lys(Ac)-AMC substrate. Type of assay: biochemical. The note with it: mouse liver enzyme. In outline:
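Boc-Lys(Ac)-AMC substrate incubated with mouse liver extract as HDAC source, 5 min preincubation then 30 min at 37° C. Trypsin stop solution added (37° C., 15-30 min) to release AMC, read at ex 360/em 460 nm; buffer-only and substrate-only wells as blanks.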

In a further assay the test system is HCT 116 (colon) cells. Briefly: Anti-cancer screen (MTT), HCT 116. As to conditions: Homo sapiens, HCT-116, HCT116, 48 hours, MTT; for GI50: read-out: Cell growth inhibition HCT116 (Colon) GI50; for CC50: read-out: Cell growth inhibition HCT116 (Colon) LC50; for IC (TGI): read-out: Cell growth inhibition HCT116 (Colon) TGI. The format is cell-based. In outline: as §1

The next assay has as its system acetylated Tubulin. Description: Tubulin acetylation, sandwich ELISA in HCT116 lysate. The format is cell-based. The note with it: HCT116, 4 hours. The procedure:
(§2) Acetylated histone (H3), acetylated Tubulin and p21 levels were detected in cell lysate by sandwich ELISA method (Cell Signaling Technology, USA, Cat No: 7232, 7204 & 7167 respectively) by following manufacturer's instructions. Briefly, colon cancer cells (HCT116. 10,000/well) were incubated with test compound (1 and 10 μM) or medium (control) for 4 hours at 37° C. in CO2 incubator. The incubation lasted 18 hours for p21 induction. After incubation, cell lysates were prepared in cell lysis buffer by sonication on ice. The lysates were collected after centrifugation and subjected to ELISA test procedure. 100 μL of each diluted cell lysate in dilution buffer (1:1) was added to appropriate capture antibody coated microwells and incubated overnight at 4° C. After washing, 100 μL of detection antibody was added for 1 hour at 37° C. After second washing, 100 μL of HRP-linked secondary antibody was added for 30 min at 37° C. Finally, after appropriate washing, 100 μL of TMB substrate was added for 10 min at 37° C. followed by 100 μL of stop solution. The absorbance of individual wells was read using a spectrophotometer at 450 nm (A450).
For orientation: In an ELISA, binding on a coated surface is turned into a signal by an enzyme label.

In the next assay the test system is Acetylated histone (H3). Description: Histone (H3) acetylation, sandwich ELISA in HCT116 lysate. The format is cell-based. The note with it: HCT116, 4 hours. As to the method:
as §2

The test system of another assay is p21. Description: p21 induction, sandwich ELISA in HCT116 lysate. As to conditions: HCT116, 18 hours. Type of assay: cell-based. As to the method: as §2

pIC50: −log10 of the molar value.

Sequence of recombinant HDAC1 enzyme (Q13547 whole entry, canonical isoform): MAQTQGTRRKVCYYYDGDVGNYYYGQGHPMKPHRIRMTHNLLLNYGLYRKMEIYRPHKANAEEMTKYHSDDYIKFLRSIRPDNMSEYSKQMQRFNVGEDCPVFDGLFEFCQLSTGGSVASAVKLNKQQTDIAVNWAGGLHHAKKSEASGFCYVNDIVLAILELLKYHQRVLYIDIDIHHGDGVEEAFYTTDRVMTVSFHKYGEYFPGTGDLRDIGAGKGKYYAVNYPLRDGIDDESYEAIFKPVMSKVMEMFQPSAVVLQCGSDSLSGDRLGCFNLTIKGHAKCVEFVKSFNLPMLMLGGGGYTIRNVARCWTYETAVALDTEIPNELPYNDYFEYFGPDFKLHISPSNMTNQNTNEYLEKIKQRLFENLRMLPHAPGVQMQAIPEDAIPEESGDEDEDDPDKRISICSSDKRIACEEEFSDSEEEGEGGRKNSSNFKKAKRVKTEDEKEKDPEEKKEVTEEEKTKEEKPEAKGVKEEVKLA

Usually GI50 stands for the concentration giving 50% growth inhibition. Broadly, the LC50 is the concentration lethal to half of the exposed cells or organisms. For orientation: pIC50 means the negative decadic logarithm of the IC50, by convention in mol/L. For `COc1ccc(/C=C(/C(=O)NCc2ccc(C(=O)Nc3ccccc3N)cc2)c2ccc(C)cc2)cc1OC` [Compound 29, N-(2-Aminophenyl)-4-((3-(3,4-dimethoxyphenyl)-2-(4-methylphenyl)acrylamido)methyl)benzamide], in assay [1], the GI50 worked out at 4.8 µM. In addition, in the assay on NCIH460 (lung) cells, the GI50 amounted to 3.1 µM, the LC50 is above 100 µM and the IC (TGI) was above 100 µM. In the assay with U251 (glioma) cells, the GI50 came out at 11 µM, the LC50 (concentration giving 50% net cell kill relative to the time-zero cell count) is above 100 µM and the IC (TGI) turned out to be 45 µM. At recombinant HDAC1 enzyme, the pIC50 is 7.24. In assay [2], the “HDAC inhibition % (1 μM)” value turned out to be 34.2%, the “HDAC inhibition % (10 μM)” value was found to be 52.8% and the negative-log IC50 (pIC50) is 4.47. Moreover, in the assay on HCT 116 (colon) cells, the GI50 is 0.3 µM, the CC50 is above 100 µM and the IC (TGI) is 40 µM.
Turning to `CSc1ccc(/C=C(/C(=O)NCc2ccc(C(=O)NO)cc2)c2cccnc2)cc1` [Compound 55, 4-((2-(Pyridin-3-yl)-3-(4-methylthiophenyl)acrylamido)methyl)-N-hydroxybenzamide], the GI50 was 0.8 µM in assay [1], 1 µM in the assay on NCIH460 (lung) cells, 0.2 µM with U251 (glioma) cells and 1.1 µM in the assay with HCT 116 (colon) cells. Moreover, the LC50 in the assay with NCIH460 (lung) cells is above 100 µM. For the same molecule, the IC (TGI) in the assay on NCIH460 (lung) cells amounted to 39 µM; with U251 (glioma) cells, 0.4 µM; in the assay with HCT 116 (colon) cells, 6.2 µM. For the same molecule, the LC50 (concentration giving 50% net cell kill relative to the time-zero cell count) in the assay on U251 (glioma) cells was found to be 56 µM. In addition, the “Tubulin acetylation (Fold increase)” value worked out at 10.4 Fold increase with acetylated Tubulin (1 μM) and 11 Fold increase in the assay with acetylated Tubulin (10 μM). Also, the “H3 acetylation (Fold increase)” value in the assay with Acetylated histone (H3) (1 μM) worked out at 4.2 Fold increase; with Acetylated histone (H3) (10 μM) it was 7.7 Fold increase. In addition, the “HDAC inhibition % (1 μM)” value in [2] was 85.7%. In [2], the “HDAC inhibition % (10 μM)” value is given as 95.1%. For the same molecule, the pIC50 in assay [2] is 7.70. The CC50 in the assay with HCT 116 (colon) cells stood at 48 µM. Besides, the results for the “P21 induction (Fold increase)” value with p21 (1 μM) and with p21 (10 μM) were 1.3 Fold increase and 2.5 Fold increase, respectively.
In the case of `COc1ccc(/C=C(/C(=O)NCc2ccc(C(=O)Nc3ccccc3N)cc2)c2cccc(F)c2)cc1OC` [Compound 32, N-(2-Aminophenyl)-4-((3-(3,4-dimethoxyphenyl)-2-(3-fluorophenyl)acrylamido)methyl)benzamide], the GI50 in assay [1] was determined as 1.3 µM. For the same molecule, in the assay on NCIH460 (lung) cells, the GI50 was 1.8 µM, the LC50 is above 100 µM and the IC (TGI) was above 100 µM. Moreover, in the assay with U251 (glioma) cells, the GI50 was found to be 2.1 µM, the LC50 (concentration giving 50% net cell kill relative to the time-zero cell count) was above 100 µM and the IC (TGI) was found to be 48 µM. The pIC50 at recombinant HDAC1 enzyme is 7.28. Moreover, in assay [2], the “HDAC inhibition % (1 μM)” value was determined as 39.9%, the “HDAC inhibition % (10 μM)” value was 61.2% and the negative logarithm of the IC50 (pIC50) was 5.32. Further, in the assay with HCT 116 (colon) cells, the CC50 was above 100 µM and the IC (TGI) worked out at 100 µM.
Regarding `COC(=O)c1ccc(/C=C(/C(=O)NCc2ccc(C(=O)Nc3ccccc3N)cc2)c2cccc(Cl)c2)cc1` [Compound 33, N-(2-Aminophenyl)-4-((3-(4-carbmethoxyphenyl)-2-(3-chlorophenyl)acrylamido)methyl)benzamide], in [1], the GI50 was 0.1 µM. Also, in the assay with NCIH460 (lung) cells, the GI50 was found to be 0.2 µM, the LC50 stood at 60 µM and the IC (TGI) stood at 11 µM. In addition, in the assay with U251 (glioma) cells, the GI50 turned out to be 0.2 µM, the LC50 (concentration giving 50% net cell kill relative to the time-zero cell count) came to 4.5 µM and the IC (TGI) came to 0.7 µM. Moreover, in assay [2], the “HDAC inhibition % (1 μM)” value turned out to be 34.4%, the “HDAC inhibition % (10 μM)” value was 35.0% and the pIC50 is 5.11. Further, in the assay with HCT 116 (colon) cells, the GI50 was determined as 0.02 µM, the CC50 worked out at 80 µM and the IC (TGI) is 2 µM.
As to `COc1ccc(/C(=C\c2ccc(F)cc2)C(=O)NCc2ccc(C(=O)NO)cc2)cc1` [Compound 49, 4-((2-(4-Methoxyphenyl)-3-(4-fluorophenyl)acrylamido)methyl)-N-hydroxybenzamide], the GI50 in assay [1] is 9.2 µM. Also, in the assay on NCIH460 (lung) cells, the GI50 turned out to be 19 µM, the LC50 was found to be 89 µM and the IC (TGI) was 52.5 µM. Moreover, in the assay with U251 (glioma) cells, the GI50 is 5.4 µM, the LC50 (concentration giving 50% net cell kill relative to the time-zero cell count) worked out at 81 µM and the IC (TGI) was found to be 34.5 µM. In assay [2], the “HDAC inhibition % (1 μM)” value came to 45.5%, the “HDAC inhibition % (10 μM)” value is listed as 69.7% and the negative logarithm of the IC50 (pIC50) was 6.48. In the assay on HCT 116 (colon) cells, the GI50 amounted to 3.3 µM, the CC50 was determined as 66 µM and the IC (TGI) is 9 µM.
`COC(=O)c1ccc(/C=C(/C(=O)NCc2ccc(C(=O)Nc3ccccc3N)cc2)c2ccccc2F)cc1` [Compound 34, N-(2-Aminophenyl)-4-((3-(4-carbmethoxyphenyl)-2-(2-fluorophenyl)acrylamido)methyl)benzamide]: in assay [1], the GI50 amounted to 4.2 µM. Also, in the assay with NCIH460 (lung) cells, the GI50 came to 10.1 µM, the LC50 is above 100 µM and the IC (TGI) stood at 90 µM. Moreover, in the assay with U251 (glioma) cells, the concentration for 50% growth inhibition (GI50) worked out at 0.7 µM, the LC50 (concentration giving 50% net cell kill relative to the time-zero cell count) worked out at 65 µM and the IC (TGI) came to 23 µM. Besides, in [2], the “HDAC inhibition % (1 μM)” value turned out to be 23.1% and the “HDAC inhibition % (10 μM)” value is 42.3%. In addition, in the assay with HCT 116 (colon) cells, the GI50 amounted to 1.8 µM, the CC50 was above 100 µM and the IC (TGI) amounted to 13 µM.
Take `Nc1ccccc1NC(=O)c1ccc(CNC(=O)/C(=C/c2ccc(F)c(C(F)(F)F)c2)c2ccc(C(F)(F)F)cc2)cc1` [Compound 4, N-(2-Aminophenyl)-4-((3-(4-fluoro-3-trifluoromethylphenyl)-2-(4-trifluoromethylphenyl)acrylamido)methyl)benzamide]: in [1], the concentration for 50% growth inhibition (GI50) was determined as 5.3 µM. In the assay on NCIH460 (lung) cells, the concentration for 50% growth inhibition (GI50) worked out at 0.2 µM, the LC50 is 58.5 µM and the IC (TGI) came out at 3.8 µM. Also, in the assay on U251 (glioma) cells, the GI50 is 11.5 µM, the LC50 (concentration giving 50% net cell kill relative to the time-zero cell count) is above 100 µM and the IC (TGI) was found to be 41 µM. In assay [2], the “HDAC inhibition % (1 μM)” value is 0.0% and the “HDAC inhibition % (10 μM)” value came out at 14.2%. Besides, in the assay on HCT 116 (colon) cells, the GI50 turned out to be 4.1 µM, the CC50 was determined as 77 µM and the IC (TGI) came out at 26 µM.
For `CSc1ccc(/C=C(/C(=O)NCc2ccc(C(=O)NO)cc2)c2ccccc2Cl)cc1` [Compound 56, 4-((2-(2-Chlorophenyl)-3-(4-methylthiophenyl)acrylamido)methyl)-N-hydroxybenzamide], the GI50 in [1] is above 100 µM. Moreover, in the assay with NCIH460 (lung) cells, the GI50 is above 100 µM, the median lethal concentration (LC50) is above 100 µM and the IC (TGI) was above 100 µM. Also, in the assay on U251 (glioma) cells, the GI50 turned out to be 0.1 µM, the LC50 (concentration giving 50% net cell kill relative to the time-zero cell count) was above 100 µM and the IC (TGI) turned out to be 0.1 µM. Moreover, in [2], the “HDAC inhibition % (1 μM)” value was 7.7% and the “HDAC inhibition % (10 μM)” value turned out to be 8.0%. Besides, in the assay on HCT 116 (colon) cells, the GI50 is above 100 µM, the CC50 was above 100 µM and the IC (TGI) is above 100 µM.
